In patent US10111875B2, “Pyrrolopyrimidine compounds and uses thereof” (HUTCHISON MEDIPHARMA LIMITED, priority 2010, dated 2018):
Read-outs that look alike come from different tables or passages of the source.

Target: Recombinant human JAK1 catalytic domain (Homo sapiens (Human), UniProt P23458)
Assay: JAK1 kinase assay (Z'-LYTE Tyr 6 Peptide)
Assay type: biochemical
Details: read-out: inhibition percentage (IR %)
Experimental: JAK1/2/3 kinase assay are performed in vitro using Kit-Tyr 6 Peptide (Invitrogen, Cat. No. PV4122). TYK2 kinase assay are performed in vitro using Z′-LYTE™ Kinase Assay Kit-Tyr 3 Peptide (Invitrogen, Cat. No. PV3192). […] All compounds are initially tested at 8 different concentrations (1 μM down to 0.0003 μM) using a 1:3 serial dilution scheme.

[1] = JAK1 kinase assay, 0.3 uM concentration

Recombinant human JAK1 catalytic domain, sequence (P23458 875-1153): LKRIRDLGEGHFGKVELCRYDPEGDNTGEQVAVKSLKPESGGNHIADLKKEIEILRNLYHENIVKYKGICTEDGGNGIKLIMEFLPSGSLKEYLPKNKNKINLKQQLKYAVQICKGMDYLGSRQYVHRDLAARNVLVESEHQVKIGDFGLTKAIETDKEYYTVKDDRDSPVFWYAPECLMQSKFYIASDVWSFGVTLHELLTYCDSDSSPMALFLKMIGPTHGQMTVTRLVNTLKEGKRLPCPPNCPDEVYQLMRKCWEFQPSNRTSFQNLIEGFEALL

Structure (SMILES)	inhibition at 0.3 µM [1]	inhibition at 0.3 µM
CN(c1ccc(C(=O)Nc2ccc(F)cc2)cn1)[C@@H]1CCN(c2ncnc3[nH]ccc23)C1 [Compound 191]	50 to 100%	
N#Cc1ccc(N[C@@H]2CCN(c3ncnc4[nH]ccc34)C2)nc1 [Compound 81]	50 to 100%	
C#CCN(C1CCCC1)[C@@H]1CCN(c2ncnc3[nH]ccc23)C1 [Compound 39, (R)—N-cyclopentyl-N-(prop-2-ynyl)-1-(7H-pyrrolo[2,3-d]pyrimidin-4-yl)pyrrolidin-3-amine]	20 to 50%	
C[C@@H](NC(=O)c1ccc(N(C)[C@@H]2CCN(c3ncnc4[nH]ccc34)C2)nc1)c1ccccc1 [Compound 195]	50 to 100%	
CN(c1ccc(C(=O)NC2c3ccccc3CC2O)cc1F)[C@@H]1CCN(c2ncnc3[nH]ccc23)C1 (stereo partly shown) [Compound 184]	50 to 100%	
Cc1cc(N(C)[C@@H]2CCN(c3ncnc4[nH]ccc34)C2)ncc1[N+](=O)[O-] [Compound 77]	50 to 100%	
CN(c1ccc(C(=O)N[C@@H](CO)c2ccccc2)cc1F)[C@@H]1CCN(c2ncnc3[nH]ccc23)C1 [Compound 179]	50 to 100%	
CN(C(=O)Nc1cccc(C#N)c1)[C@@H]1CCN(c2ncnc3[nH]ccc23)C1 [Compound 16, (R)-1-(1-(7H-pyrrolo[2,3-d]pyrimidin-4-yl)pyrrolidin-3-yl)-3-(3-cyanophenyl)-1-methylurea]	50 to 100%	
CN(c1ccc(NS(=O)(=O)Cc2cccc(Cl)c2)cn1)[C@@H]1CCN(c2ncnc3[nH]ccc23)C1 [Compound 224]	50 to 100%	
CN(c1ccc(C(=O)NC2CC2)cn1)[C@@H]1CCN(c2ncnc3[nH]ccc23)C1 [Compound 171, (R)-6-((1-(7H-pyrrolo[2,3-d]pyrimidin-4-yl)pyrrolidin-3-yl)(methyl)amino)-N-cyclopropylnicotinamide]	50 to 100%	
CN(C)CCNS(=O)(=O)c1ccc(N(C)[C@@H]2CCN(c3ncnc4[nH]ccc34)C2)nc1 [Compound 248]	50 to 100%	
CN(c1ccc([N+](=O)[O-])cn1)[C@@H]1CCN(c2ncnc3[nH]ccc23)C1 [Compound 70]	50 to 100%	
CN(c1ccc(C(=O)N[C@@H]2CCC[C@H]2O)cn1)[C@@H]1CCN(c2ncnc3[nH]ccc23)C1 [Compound 194]	20 to 50%	
CN(c1ccc2nn[nH]c2n1)[C@@H]1CCN(c2ncnc3[nH]ccc23)C1 [Compound 167, (R)—N-(1-(7H-pyrrolo[2,3-d]pyrimidin-4-yl)pyrrolidin-3-yl)-N-methyl-3H-[1,2,3]triazolo[4,5-b]pyridin-5-amine]	50 to 100%	
CN([C@@H]1CCN(c2ncnc3[nH]ccc23)C1)S(=O)(=O)c1cccc(C#N)c1 [Compound 10]	50 to 100%	
Cc1cc(Cl)nc(N(C)[C@@H]2CCN(c3ncnc4[nH]ccc34)C2)c1C#N [Compound 73]	50 to 100%	
C#CCN(c1ccc(S(C)(=O)=O)cn1)[C@@H]1CCN(c2ncnc3[nH]ccc23)C1 [Compound 58]	20 to 50%	
CN(c1ccc(C(=O)NCc2ccccc2)cn1)[C@@H]1CCN(c2ncnc3[nH]ccc23)C1 [Compound 172]	20 to 50%	
C#CCN(c1c(F)cc(C#N)cc1F)[C@@H]1CCN(c2ncnc3[nH]ccc23)C1 [Compound 129]	50 to 100%	
CN(c1ccc(NS(=O)(=O)Cc2ccc(F)cc2)cn1)[C@@H]1CCN(c2ncnc3[nH]ccc23)C1 [Compound 221]	20 to 50%	
CN(c1cnc(-c2ccn[nH]2)cn1)[C@@H]1CCN(c2ncnc3[nH]ccc23)C1 [Compound 152]	50 to 100%	
CN(C(=O)c1ccc(N(C)[C@@H]2CCN(c3ncnc4[nH]ccc34)C2)nc1)c1ccccc1 [Compound 197]	50 to 100%	
CN(c1ccc(NC(=O)C2CC2)cn1)[C@@H]1CCN(c2ncnc3[nH]ccc23)C1 [Compound 229]	50 to 100%	

Structure (SMILES)	inhibition at 0.3 µM [1]	inhibition at 0.3 µM
CN(c1ccc(S(C)(=O)=O)cn1)[C@@H]1CCN(c2ncnc3[nH]ccc23)C1 [Compound 61]	50 to 100%	
CN(c1ccc(Cl)nn1)[C@@H]1CCN(c2ncnc3[nH]ccc23)C1 [Compound 85]	50 to 100%	
CN(c1cc(F)cc(F)c1C#N)[C@@H]1CCN(c2ncnc3[nH]ccc23)C1 [Compound 118]	20 to 50%	
CN(c1ccc(S(=O)(=O)C(F)(F)F)cc1)[C@@H]1CCN(c2ncnc3[nH]ccc23)C1 [Compound 122]	50 to 100%	
CN(c1ccc(NC(=O)c2ccccc2Cl)cn1)[C@@H]1CCN(c2ncnc3[nH]ccc23)C1 [Compound 227]	50 to 100%	
COc1nc(N(C)[C@@H]2CCN(c3ncnc4[nH]ccc34)C2)ccc1C#N [Compound 42]	50 to 100%	
CNC(=O)c1ccc(N(C)[C@@H]2CCN(c3ncnc4[nH]ccc34)C2)nc1 [Compound 175]	20 to 50%	
CN(c1ccc(C#N)c(Br)c1)[C@@H]1CCN(c2ncnc3[nH]ccc23)C1 [Compound 114]	50 to 100%	
CN(c1nc(Cl)nc2ccccc12)[C@@H]1CCN(c2ncnc3[nH]ccc23)C1 [Compound 79]	50 to 100%	
CC(C)[C@H](CO)NC(=O)c1ccc(N(C)[C@@H]2CCN(c3ncnc4[nH]ccc34)C2)c(F)c1 [Compound 180]	50 to 100%	
CC(C)S(=O)(=O)N(C)[C@@H]1CCN(c2ncnc3[nH]ccc23)C1 [Compound 49]	50 to 100%	
CN(c1cnc(NCC2CC2)cn1)[C@@H]1CCN(c2ncnc3[nH]ccc23)C1 [Compound 138]	50 to 100%	
CCCC(=O)N(C)[C@@H]1CCN(c2ncnc3[nH]ccc23)C1 [Compound 3]	50 to 100%	
CN([C@@H]1CCN(c2ncnc3[nH]ccc23)C1)S(=O)(=O)c1ccc(C#N)cc1 [Compound 9]	20 to 50%	
CN(c1ccc(NS(=O)(=O)c2cccs2)cn1)[C@@H]1CCN(c2ncnc3[nH]ccc23)C1 [Compound 214]	50 to 100%	
CCNS(=O)(=O)c1ccc(N(C)[C@@H]2CCN(c3ncnc4[nH]ccc34)C2)nc1 [Compound 240]	50 to 100%	
CN(c1ccc(S(=O)(=O)NC2CC2)cn1)[C@@H]1CCN(c2ncnc3[nH]ccc23)C1 [Compound 236]	50 to 100%	
COCC(=O)N(C)[C@@H]1CCN(c2ncnc3[nH]ccc23)C1 [Compound 4]	20 to 50%	
Cc1cc(C#N)cnc1N(C)[C@@H]1CCN(c2ncnc3[nH]ccc23)C1 [Compound 100]	20 to 50%	
COCCNS(=O)(=O)c1ccc(N(C)[C@@H]2CCN(c3ncnc4[nH]ccc34)C2)nc1 [Compound 237]	50 to 100%	
CN(c1ccc(NS(=O)(=O)c2ccc(F)cc2)cn1)[C@@H]1CCN(c2ncnc3[nH]ccc23)C1 [Compound 212]	50 to 100%	
Cc1ccc(CS(=O)(=O)Nc2ccc(N(C)[C@@H]3CCN(c4ncnc5[nH]ccc45)C3)nc2)cc1 [Compound 222]	50 to 100%	
CN(c1ccc(-c2cccs2)cn1)[C@@H]1CCN(c2ncnc3[nH]ccc23)C1 [Compound 147]	50 to 100%	

Structure (SMILES)	inhibition at 0.3 µM [1]	inhibition at 0.3 µM
CN(c1ncc(C#N)s1)[C@@H]1CCN(c2ncnc3[nH]ccc23)C1 [Compound 95]	50 to 100%	
CN(CCC#N)[C@@H]1CCN(c2ncnc3[nH]ccc23)C1 [Compound 64]	50 to 100%	
CN([C@@H]1CCN(c2ncnc3[nH]ccc23)C1)S(=O)(=O)c1cccc([N+](=O)[O-])c1 [Compound 12]	50 to 100%	
CN(c1ccnc(C#N)c1)[C@@H]1CCN(c2ncnc3[nH]ccc23)C1 [Compound 121]	50 to 100%	
CN([C@@H]1CCN(c2ncnc3[nH]ccc23)C1)S(=O)(=O)C1CC1 [Compound 57]	20 to 50%	
CN(c1ccc(C#N)cc1-c1cccc(C#N)c1)[C@@H]1CCN(c2ncnc3[nH]ccc23)C1 [Compound 148]	20 to 50%	
CN(c1ccc(S(=O)(=O)N2CCNCC2)cn1)[C@@H]1CCN(c2ncnc3[nH]ccc23)C1 [Compound 251]	50 to 100%	
CN(c1ccc(C(=O)O)cn1)[C@@H]1CCN(c2ncnc3[nH]ccc23)C1 [Compound 170, (R)-6-((1-(7H-pyrrolo[2,3-d]pyrimidin-4-yl)pyrrolidin-3-yl)(methyl)amino)nicotinic acid]		50 to 100%
CN(c1ccc(S(=O)(=O)Nc2ccc(F)cc2)cn1)[C@@H]1CCN(c2ncnc3[nH]ccc23)C1 [Compound 253]	50 to 100%	
CN(c1ccc(-c2ccncc2)cn1)[C@@H]1CCN(c2ncnc3[nH]ccc23)C1 [Compound 144]		50 to 100%
CN(c1ccc(-c2nn[nH]n2)cc1F)[C@@H]1CCN(c2ncnc3[nH]ccc23)C1 [Compound 161]	50 to 100%	
CN(c1ccc(C#N)cn1)[C@@H]1CCN(c2ncnc3[nH]ccc23)C1 [Compound 71]	50 to 100%	
CN(c1ccc(C(=O)N[C@@H]2c3ccccc3C[C@@H]2O)cc1F)[C@@H]1CCN(c2ncnc3[nH]ccc23)C1 [Compound 203]	20 to 50%	
CN(c1ccc(F)cn1)[C@@H]1CCN(c2ncnc3[nH]ccc23)C1 [Compound 66]	20 to 50%	
CN(c1ccc(C#N)cc1)[C@@H]1CCN(c2ncnc3[nH]ccc23)C1 [Compound 104]	50 to 100%	
COC(=O)c1ccc(N(C)[C@@H]2CCN(c3ncnc4[nH]ccc34)C2)nc1 [Compound 168]	50 to 100%	
CN(c1ccc(C(F)(F)F)nn1)[C@@H]1CCN(c2ncnc3[nH]ccc23)C1 [Compound 62]	50 to 100%	
CN(c1ccc(C(F)(F)F)cn1)[C@@H]1CCN(c2ncnc3[nH]ccc23)C1 [Compound 123]	50 to 100%	
N#CCN(C1CC1)[C@@H]1CCN(c2ncnc3[nH]ccc23)C1 [Compound 55]	50 to 100%	
CN(c1cccc(C#N)n1)[C@@H]1CCN(c2ncnc3[nH]ccc23)C1 [Compound 91]	50 to 100%	
C[C@H](O)CNS(=O)(=O)c1ccc(N(C)[C@@H]2CCN(c3ncnc4[nH]ccc34)C2)nc1 [Compound 245]	50 to 100%	
